Source: patent publication US20260008775A1, “AZOLE MODULATORS OF CHOLESTEROL BIOSYNTHESIS AND THEIR USE FOR PROMOTING REMYELINATION” (GENENTECH, INC., priority 2022, published 2026)
pEC50, pKi: −log10 of the molar value.

Assays:
[1] = target: human emopamil binding protein and human 7-dehydrocholesterol reductase (hEBP-DHCR7) (Homo sapiens (Human), UniProt Q15125); assay: hEBP-DHCR7 radioligand binding assay (filter binding, membranes of co-expressing HEK293 cells); conditions: for pKi: competition with [3H] radioligand, 8 doses 0.06 to 5000 nM, Ki calculated from IC50
Sequence of human emopamil binding protein and human 7-dehydrocholesterol reductase (hEBP-DHCR7) (Q15125 whole entry): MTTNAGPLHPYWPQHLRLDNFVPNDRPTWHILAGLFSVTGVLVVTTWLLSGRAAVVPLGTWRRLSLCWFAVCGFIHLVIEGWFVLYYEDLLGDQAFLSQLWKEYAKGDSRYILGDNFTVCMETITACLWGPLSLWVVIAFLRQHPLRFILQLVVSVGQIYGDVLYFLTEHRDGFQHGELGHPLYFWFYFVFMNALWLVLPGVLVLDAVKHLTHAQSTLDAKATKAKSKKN
In short: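 Membranes from HEK293 cells transiently co-expressing hEBP and DHCR7 (10 μg/well) were incubated for 3 h at 22 °C with tritiated spiro-sulfone radioligand (added at 25 nM) and compound at 1 μM or 0.06–5000 nM. Filtration and scintillation counting followed. Inhibition was normalised to 5 μM unlabelled ligand and DMSO, and Ki was derived as IC50/(1+[L]/Kd).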

EpiSC-derived OPCs = assay: In vitro phenotypic screening of OPCs, MBP high-content imaging (percentage of oligodendrocytes); format: cell-based, mouse; conditions: for pEC50: Mus musculus, 72 h, 3 days, MBP stain, dose-response 0.5 nM to 1000 nM, read-out: OPC EC50
In short: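 Mouse epiblast stem cell-derived OPCs were plated without growth factors and given 8-point doses (1000 nM to 0.5 nM, 0.1% DMSO final) for 3 days at 37 °C. MBP/DAPI immunostaining and high-content imaging gave the percentage of oligodendrocytes. EC50 came from a Hill-equation fit.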

[2] = system: zymostenol accumulation (EBP) in EpiSC-derived OPCs; assay: GC/MS-based sterol profiling, zymostenol accumulation in EpiSC-derived OPCs; format: cell-based, mouse; conditions: for pEC50: Mus musculus, 24 h, EpiSC-derived OPCs, 24 hr, 8 doses from 0.15 nM to 333 nM, read-out: Mouse Zymostenol GCMS EC50
In short: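 Mouse epiblast stem cell-derived OPCs plated at 100,000 cells/well in growth-factor-free N2B27 and treated 24 h. Sterols extracted by modified Folch wash, silylated with BSTFA, and quantified by electron-impact GC/MS against cholesterol-d7 (zymostenol ion 458). Zymostenol normalised to 24 h 100 nM positive-control reference.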

pKi [1] | pEC50 (EpiSC-derived OPCs) | pEC50 [2] | fold decrease in EBP inhibition ([1]; as compared to compound 202 (no amine group on Ring B)) [fold] | SMILES | fold decrease in activity in the OPC assay (EpiSC-derived OPCs; as compared to compound 202) [fold] | fold decrease in activity in the mouse zymostenol assay ([2]; as compared to compound 202) [fold]
7.56 | 7.01 | 7.67 |  | CC(C)n1nc(-c2cnc(C(F)(F)F)nc2)cc1[C@H]1[C@@H]2C[C@H](N3CCOCC3)C[C@@H]21 [Compound 203, 4-((1R,3r,5S,6r)-6-(1-isopropyl-3-(2-(trifluoromethyl)pyrimidin-5-yl)-1H-pyrazol-5-yl)bicyclo[3.1.0]hexan-3-yl)morpholine] |  | 
7.80 | 8.22 | 8.68 |  | CC(C)n1nc(-c2cnc(C(F)(F)F)nc2)nc1[C@H]1[C@@H]2C[C@H](N3CCOC[C@H]3C)C[C@@H]21 [Compound 204, (R)-4-((1R,3r,5S,6r)-6-(1-isopropyl-3-(2-(trifluoromethyl)pyrimidin-5-yl)-1H-1,2,4-triazol-5-yl)bicyclo[3.1.0]hexan-3-yl)-3-methylmorpholine] |  | 
5.44 | 5.52 | 5.85 | 19.5 | CC(C)n1nc(-c2cnc(N)c(C(F)(F)F)c2)cc1[C@H]1[C@@H]2C[C@@H](N3CCOCC3)C[C@@H]21 [Compound A, reference compound] | 4.1 | 5.9
